Assay [1] addresses T1, SUMO (Homo sapiens, UniProt Q9UBT2).
T1 sequence (Q9UBT2 1-640): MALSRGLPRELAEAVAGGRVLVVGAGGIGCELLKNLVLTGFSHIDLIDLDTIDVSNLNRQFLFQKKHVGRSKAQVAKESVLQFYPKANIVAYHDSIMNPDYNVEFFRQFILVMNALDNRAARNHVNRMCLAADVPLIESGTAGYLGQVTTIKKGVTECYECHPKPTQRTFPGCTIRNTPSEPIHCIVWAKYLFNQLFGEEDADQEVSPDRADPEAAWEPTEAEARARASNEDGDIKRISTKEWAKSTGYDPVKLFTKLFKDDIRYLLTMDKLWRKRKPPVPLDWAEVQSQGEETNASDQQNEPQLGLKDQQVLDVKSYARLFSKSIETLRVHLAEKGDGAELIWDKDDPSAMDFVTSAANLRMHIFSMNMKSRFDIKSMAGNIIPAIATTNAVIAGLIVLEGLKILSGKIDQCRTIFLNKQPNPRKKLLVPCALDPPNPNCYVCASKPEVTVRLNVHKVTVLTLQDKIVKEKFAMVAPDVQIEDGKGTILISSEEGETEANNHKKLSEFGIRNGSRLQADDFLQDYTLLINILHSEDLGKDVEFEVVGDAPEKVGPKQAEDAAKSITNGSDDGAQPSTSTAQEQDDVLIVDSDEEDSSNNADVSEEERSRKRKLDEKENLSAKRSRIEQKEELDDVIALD
T1 sequence (Q9UBE0 1-346 partner): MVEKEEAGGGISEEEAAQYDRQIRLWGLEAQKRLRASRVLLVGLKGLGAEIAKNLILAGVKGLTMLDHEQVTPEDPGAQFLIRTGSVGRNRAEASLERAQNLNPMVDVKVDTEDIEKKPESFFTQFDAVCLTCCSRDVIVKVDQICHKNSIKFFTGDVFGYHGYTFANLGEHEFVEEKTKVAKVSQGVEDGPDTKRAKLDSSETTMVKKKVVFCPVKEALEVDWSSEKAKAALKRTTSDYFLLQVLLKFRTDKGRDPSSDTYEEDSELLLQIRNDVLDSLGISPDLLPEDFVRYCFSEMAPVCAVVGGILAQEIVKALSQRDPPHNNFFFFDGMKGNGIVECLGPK
Briefly: SUMO activity (Table I, biological activities). Format: biochemical. The arrangement: key: + (less active); ++ (active); +++ (most active).

In assay [2] the test system is c-Myc. Briefly: c-Myc activity (Table I, biological activities). More on the design: key: + (less active); ++ (active); +++ (most active).

Consider `CCOC(=O)C1=C(C(=O)Nc2ccccc2OC)C2C=CC1(C(Nc1ccccc1)c1ccc(CN3CCOCC3)cc1)O2` (stereo not drawn) [Compound 597], for which, in assay [1], the SUMO entry is “+”. For the same compound, in assay [2], the c-Myc entry was “++”. With `CCOC(=O)C1=C(C(=O)Nc2ccc(C)c(F)c2)C2C=CC1(C(Nc1ccc(OC)cc1)c1ccc(CN3CCOCC3)cc1)O2` (stereo not drawn) [Compound 621], in assay [1], the SUMO result was “+”. In assay [2], the c-Myc result is reported as “+”. As to `CCOC(=O)C1=C(C(=O)Nc2ccc(C)c(F)c2)C2C=CC1(C(Nc1ccc(C#N)cc1)c1ccc(CN3CCOCC3)cc1)O2` (stereo not drawn) [Compound 612], the SUMO entry in assay [1] was “+”. In addition, the c-Myc entry in assay [2] is reported as “+”.

With `COC(=O)C1=C(C(=O)NCCN2CCCC2)C2C=CC1(C(Cc1ccccc1)Nc1ccc(F)cc1)O2` (stereo not drawn) [Compound 443], the SUMO result in assay [1] is reported as “+++”. Further, the c-Myc result in assay [2] is recorded as “++”. Consider `COC(=O)C1=C(C(=O)NC2CCN(C)CC2)C2C=CC1(C(Cc1ccccc1)Nc1ccc(F)cc1)O2` (stereo not drawn) [Compound 262], for which, in assay [1], the SUMO entry is listed as “++”. The c-Myc result in assay [2] is “++”. Regarding `COC(=O)C1=C(C(=O)NCCN(C)C)C2C=CC1(C(Cc1ccc(C(F)(F)F)cc1)Nc1ccccc1)O2` (stereo not drawn) [Compound 423], in assay [1], the SUMO entry is on record as “++”. Besides, in assay [2], the c-Myc result is on record as “++”.

Regarding `COC(=O)C1=C(C(=O)Nc2ccc(OCCN(C)C)c(F)c2)C2C=CC1(C(Cc1ccccc1)Nc1ccccc1)O2` (stereo not drawn) [Compound 500], in assay [1], the SUMO entry is listed as “++”. Besides, the c-Myc entry in assay [2] is “+”. The corresponding values for `COC(=O)C1=C(C(=O)NC2CCN(C(=O)CN(C)C)CC2)C2C=CC1(C(Cc1ccccc1)Nc1ccccc1)O2` (stereo not drawn) [Compound 385] are “++” and “+”. On the same counts, the results for `COC(=O)C1=C(C(=O)Nc2ccc(OCCN3CCCC3)cc2)C2C=CC1(C(Cc1ccccc1)Nc1ccccc1)O2` (stereo not drawn) [Compound 505] are “++” and “+”.

Consider `COC(=O)C1=C(C(=O)Nc2ccc(OC)nc2)C2C=CC1(C(Cc1ccccc1)Nc1cc(F)cc(Cl)c1)O2` (stereo not drawn) [Compound 218], for which, in assay [1], the SUMO entry is recorded as “+++”. Besides, in assay [2], the c-Myc entry is “+”. With `COC(=O)C1=C(C(=O)NCCN(C)C)C2C=CC1(C(Cc1ccccc1)Nc1cccc(F)c1)O2` (stereo not drawn) [Compound 420], in assay [1], the SUMO entry is reported as “++”. Also, the c-Myc result in assay [2] is on record as “++”. As for `CCN(CC)CCNC(=O)C1=C(C(=O)OC)C2(C(Cc3ccccc3)Nc3c(F)cccc3F)C=CC1O2` (stereo not drawn) [Compound 433], the SUMO result in assay [1] is “++”. For the same compound, the c-Myc result in assay [2] was “+”. The corresponding values for `COC(=O)C1=C(C(=O)NC2CCN(C(C)=O)CC2)C2C=CC1(C(Cc1ccccc1)Nc1ccccc1)O2` (stereo not drawn) [Compound 287] are “++” and “++”. Regarding `COC(=O)C1=C(C(=O)OC)C2(C(Nc3ccccc3)C3CCC3)C=CC1O2` (stereo not drawn) [Compound 184], the SUMO entry in assay [1] was “++”. The c-Myc entry in assay [2] is “+”. As to `CCOC(=O)C1=C(C(=O)OCC)C2(C(Cc3ccccc3)Nc3ccc(F)cc3F)C=CC1O2` (stereo not drawn) [Compound 312], the SUMO entry in assay [1] is reported as “++”. For the same compound, in assay [2], the c-Myc result is “+”.

With `COC(=O)C1=C(C(=O)NCCN(C)C)C2C=CC1(C(Cc1ccccc1)Nc1c(F)cccc1F)O2` (stereo not drawn) [Compound 431], the SUMO entry in assay [1] was “++”. In assay [2], the c-Myc entry is recorded as “+”. As for `COC(=O)C1=C(C(=O)NNc2ccccc2)C2C=CC1(C(Cc1ccccc1)Nc1cc(F)cc(Cl)c1)O2` (stereo not drawn) [Compound 215], the SUMO entry in assay [1] is recorded as “++”. Also, in assay [2], the c-Myc result is “+”. For the compound `COC(=O)C1=C(C(=O)NC2CCN(C)CC2)C2C=CC1(C(Cc1ccccc1)Nc1cc(F)cc(F)c1)O2` (stereo not drawn) [Compound 240], in assay [1], the SUMO entry is “++”. Moreover, the c-Myc result in assay [2] is reported as “+”. In the case of `CCOc1cccc(NC(Cc2ccccc2)C23C=CC(O2)C(C(=O)NCCN(C)C)=C3C(=O)OC)c1` (stereo not drawn) [Compound 251], the SUMO result in assay [1] is “+++”. For the same compound, the c-Myc entry in assay [2] is “+”. The corresponding values for `COC(=O)C1=C(C(=O)Nc2ccccc2C)C2C=CC1(C(Cc1ccccc1)Nc1ccccc1)O2` (stereo not drawn) [Compound 360] are “++” and “+”.

For the compound `COC(=O)C1=C(C(=O)NCCN(C)C)C2C=CC1(C(Cc1cccc(F)c1)Nc1cc(F)cc(F)c1)O2` (stereo not drawn) [Compound 435], the SUMO entry in assay [1] is “+++”. Also, the c-Myc entry in assay [2] was “++”. As for `COC(=O)C1=C(C(=O)NCCN2CCCC2)C2C=CC1(C(Cc1ccccc1)Nc1ccccc1)O2` (stereo not drawn) [Compound 406], the SUMO entry in assay [1] is recorded as “+++”. Also, the c-Myc entry in assay [2] is recorded as “++”. Regarding `COC(=O)C1=C(C(=O)NCCN(C)C)C2(C)C=CC1(C(Cc1ccccc1)Nc1ccccc1)O2` (stereo not drawn) [Compound 594], the SUMO result in assay [1] is “++”. For the same compound, in assay [2], the c-Myc entry is reported as “+”.

As for `CCN(CC)CCNC(=O)C1=C(C(=O)OC)C2(C(Cc3ccccc3)Nc3cc(F)cc(Cl)c3)C=CC1O2` (stereo not drawn) [Compound 376], the SUMO entry in assay [1] is reported as “+++”. Moreover, the c-Myc result in assay [2] was “++”. For `C#Cc1ccc(NC(=O)C2=C(C(=O)OCC)C3(C(Nc4ccccc4)c4ccc(CN5CCOCC5)cc4)C=CC2O3)cc1` (stereo not drawn) [Compound 577], the SUMO entry in assay [1] is reported as “++”. Moreover, the c-Myc result in assay [2] was “++”. `CCOC(=O)C1=C(C(=O)OCC)C2(C(Cc3ccc(F)cc3)Nc3ccccc3)C=CC1O2` (stereo not drawn) [Compound 446]: the SUMO result in assay [1] was “++”. Further, the c-Myc entry in assay [2] is reported as “+”. Turning to `COC(=O)C1=C(C(=O)Nc2ccc(OC)cc2)C2C=CC1(C(Nc1ccccc1)C1CCC1)O2` (stereo not drawn) [Compound 178], the SUMO result in assay [1] was “++”. The c-Myc entry in assay [2] was “+”.

With `COC(=O)C1=C(C(=O)OC)C2(C(Cc3c(Cl)cccc3Cl)Nc3ccccc3)C=CC1O2` (stereo not drawn) [Compound 657], the SUMO result in assay [1] is listed as “++”. On the same count and under the same terms, to `COC(=O)C1=C(C(=O)NCCN(C)C)C2CCC1(C(Cc1ccccc1Cl)Nc1ccccc1)O2` (stereo not drawn) [Compound 691] belongs “++”; to `COC(=O)C1=C(C(=O)O)C2C=CC1(C(Cc1ccccc1)Nc1cc(F)cc(F)c1)O2` (stereo not drawn) [Compound 203], “++”; to `COC(=O)C1=C(C(N)=O)C2(C)C=CC1(C(Cc1ccccc1)Nc1ccccc1)O2` (stereo not drawn) [Compound 294], “++”. In the case of `COC(=O)C1=C(C(=O)OC)C2(C(Cc3ccccc3Cl)Nc3cccc(OCc4ccccc4)c3)C=CC1O2` (stereo not drawn) [Compound 674], the SUMO entry in assay [1] is “++”.

On to `O=C(O)C1=C(C(=O)Nc2ccccc2)C2C=CC1(C(Cc1ccccc1)Nc1ccccc1)O2` (stereo not drawn) [Compound 174], for which the SUMO result in assay [1] was “+”. In the case of `COC(=O)C1=C(C(=O)OC)C2(C(Cc3ccccc3C)Nc3ccccc3)C=CC1O2` (stereo not drawn) [Compound 648], in assay [1], the SUMO entry was “++”.

With `COC(=O)C1=C(C(=O)OC)C2(C(Nc3ccccc3)c3ccc4cc(OC)ccc4c3)C=CC1O2` (stereo not drawn) [Compound 653], the SUMO result in assay [1] is given as “++”. As to `CCCCC(Nc1cc(F)cc(F)c1)C12C=CC(O1)C(C(=O)NCCN(C)C)=C2C(=O)OC` (stereo not drawn) [Compound 397], the SUMO entry in assay [1] is “+”.

On to `Cc1ccc(S(=O)(=O)C2=CC3(C(Cc4ccccc4)Nc4ccccc4)C=CC2(C)O3)cc1` (stereo not drawn) [Compound 532], for which the SUMO result in assay [1] is listed as “+”. As to `CC(C)NC(=O)C1=C(C(=O)NC(C)C)C2(C(Cc3ccccc3)Nc3ccccc3)C=CC1O2` (stereo not drawn) [Compound 159], the SUMO result in assay [1] was “+”. Consider `COC(=O)C1=C(C(=O)OC)C2(C(Cc3ccccc3Cl)Nc3ccccc3)C=CC1O2` (stereo not drawn) [Compound 640], for which, in assay [1], the SUMO result is recorded as “+++”. With `COC(=O)C1=C(C(=O)NC2CCN(C)CC2)C2(C)C=CC1(C(Cc1ccccc1)Nc1ccccc1)O2` (stereo not drawn) [Compound 268], in assay [1], the SUMO result is on record as “+”.

In the case of `CCOC(=O)C1=C(C(=O)NC2CCN(C)CC2)C2(CO)C=CC1(C(Cc1ccccc1)Nc1ccccc1)O2` (stereo not drawn) [Compound 269], the SUMO entry in assay [1] is “++”. Same read-out and setting: to `COC(=O)C1=C(C(=O)OC)C2(C(Nc3ccccc3)c3cc4ccccc4nc3Cl)C=CC1O2` (stereo not drawn) [Compound 671] belongs “++”; to `CCOC(=O)C1=C(C(=O)OCC)C2(C(Cc3ccccc3)Nc3ccccc3)C=CC1(CO)O2` (stereo not drawn) [Compound 265], “++”; to `CNC(=O)C1=C(C(=O)OC)C2(C(Cc3ccccc3)Nc3ccccc3)C=CC1(C)O2` (stereo not drawn) [Compound 293], “++”. Same read-out and setting: to `COC(=O)C1=C(C(=O)NCCO)C2C=CC1(C(Cc1ccccc1)Nc1ccccc1)O2` (stereo not drawn) [Compound 152] belongs “++”; to `COC(=O)C1=C(C(=O)OC)C2(C(Cc3ccc(Cl)c(Cl)c3)Nc3ccccc3)C=CC1O2` (stereo not drawn) [Compound 642], “+++”; to `C=CC(C)(C)C(Nc1ccccc1)C12C=CC(O1)C(C(=O)OC)=C2C(=O)OC` (stereo not drawn) [Compound 188], “++”. In the case of `COC(=O)C1=C(C(=O)NC2CCN(C(=O)OC(C)(C)C)CC2)C2C=CC1(C(Cc1ccccc1)Nc1cc(F)cc(F)c1)O2` (stereo not drawn) [Compound 255], the SUMO entry in assay [1] was “+”.

These data come from patent publication US11578079B2, “SUMO inhibitor compounds and uses thereof” (CITY OF HOPE, priority 2018, dated 2023).
